From US9744244B2, “Amphipathic peptide” (The Queen's University of Belfast, priority 2012, dated 2017)
Where no end group is shown, it is not given here.

Key:
[1] = tested on: C57/BL6 mice; experiment: Immune response on repeated administration (ELISA, Greiss test on serum); format: in vivo; conditions: first week, compared with PEI only
[2] = Nanoparticle size and charge analysis (DLS, Laser Doppler Velocimetry, Malvern Zetasizer); format: physicochemical
Experimental: In order to obtain particle size and charge distributions the mean hydrodynamic particle size measurements RALA complexes were performed using Dynamic Light Scattering (DLS). Dynamic Light Scattering is based upon the principle that when particles are illuminated with a laser, due to Brownian motion there will be scattering of the light. The intensity of the scattered light fluctuates as a result of this Brownian motion caused by bombardment of the particles by solvent molecules. A correlation curve reflecting the decay rate is generated based on fluctuations of the scattered light where a slower correlation decay rate represents a slower moving particle. Based on the Stokes-Einstein equation larger particles move more slowly and, thus, the correlation function can be used to determine the size distribution of the particles. dynamic light scattering (DLS) was used.
Surface charge measurements of the RALA nanoparticles were determined by Laser Doppler Velocimetry. The zeta potential of the particles was measured using disposable foltable zeta cuvettes. […]
The nanoparticles were made up at an appropriate range of N:P ratios with at least using 2 μg of DNA in each sample. Nanoparticles were analysed using either and analysis was completed on either the Zetasizer-HS3000 (Malvern Instruments) or the Zetasizer-Nano instrument with DTS software (Malvern Instruments, UK). […]

[3] = tested on: ZR-75-1 cells; experiment: Transfection of ZR-75-1 cells, GFP expression by flow cytometry; format: cell-based
Experimental: In order to test the RALA in vitro, small scale transfections were performed carried out. 5×10^4 cells were seeded onto each well of a 96 well plate and the cells incubated under with complete medium standard conditions for 48 hours. The medium was subsequently removed from the plates and 100 μl of transfection medium (Optimem Invitrogen, UK) was added to each well. Cells were incubated for 2 hours at 37° C. and 5% CO2 standard conditions. In the meanwhile complexes were made up using 1 μg of plasmid DNA with the RALA vector and added to the cells when the two hours had passed. 100 μl of the each N:P ratio were added to each well of the cells. Cells were then incubated for a further 4 hours under standard conditions and the medium with RPMI-1640 supplemented with +10% FCS. (FIG. 4, 31 (+Chloroquine), 32 (+Bafilomycin), 33 (+KALA NPs), 34 (+Lipofectamine), 35).
ZR-75-1 & PC-3 cells that were transfected with RALA/pEGFP-N1 complexes were trypsinised and washed twice with 2% formaldehyde in phosphate buffered saline. The expression of green fluorescent protein was measured by flow cytometry using FACS calibur system (BD Bioscience, UK). The data was analysed using the Flo-Jo software program and fluorescent intensity is reported at 4% gating. (FIG. 7b, 11, 31, 32, 33, 34, 35, 57 (+RAT/pEGFP-N1)).

Row | Sequence | initial TNFα response [1] | ability to condense DNA into nanoparticles [2] | ability to transfect cells [3]
1 | WEARLARALARALARHLARALARALRACEA [RALA] | significantly lower initial response of TNFα than the PEI only treated animals |  | 
2 | WEARLARALARALARHLRACEA (22mer protein sequence (Table 2)) [Peptide 22mer, comparative peptide] |  | unable to condense DNA into nanoparticles | unable to condense DNA into nanoparticles and transfect cells
